In assay [1] the test system is dorsal root ganglion (DRG) neurons. It is filed as cell-based, mouse.
In assay [2] the test system is mice. Briefly: Warm-water (55° C.) tail-flick assay, antinociception. It is filed as in vivo, mouse. On the technique in general: Thermal pain tests record how soon the animal reacts.
For assay [3], the system named is mice. As to the kind of experiment: Acute physical dependence assay: naloxone-precipitated withdrawal jumping. The class given is in vivo, mouse. Particulars: for effect on naloxone-precipitated withdrawal jumping: co-treatment 4 hours with 100 mg/kg morphine s.c. plus low dose antagonist.
Assay [4] concerns mice. Particulars: morphine 20-50 mg/kg s.c. twice daily 4 days alone or + naltrexone 10 μg/kg s.c.; n=30.
Assay [5] concerns mice. Particulars: at 30 minutes; n=10.
The subject of assay [6] is excitatory opioid receptors on DRG neurons. The class given is cell-based, mouse.
The next assay concerns DRG neurons. It is filed as cell-based, mouse.
In the next assay the test system is human volunteers. Particulars: yohimbine 0.1 mg/kg IV; 100 mg tramadol orally; cited from earlier work.

Molecules are shown by their SMILES. “Also recorded” adds a separate entry of the source. Like-named read-outs stand apart in the source and are kept apart here.

`CN1CC[C@]23c4c5ccc(O)c4O[C@H]2[C@@H](O)C=C[C@H]3[C@H]1C5` [morphine]: in assay [1], the APD during application entry is on record as “prolonged” and the “alteration of the APD of DRG neurons” value is “prolong the APD”. In addition, the peak tail-flick latencies with mice [2] (100 mg/kg morphine alone or + 10 μg/kg naltrexone, cutoff value) is 10 s. The “mice showing naloxone-precipitated jumping” value in the assay on mice [3] (100 mg/kg morphine s.c. alone or + naltrexone 10 μg/kg, naloxone 10 mg/kg i.p. 3-4 h later, n=30) is recorded as “About 67%”. Also, the “mice showing naloxone-precipitated jumping” value in the assay with mice [4] is “About 60%”. The “antinociception after acute 1 mg/kg morphine, 1 day after drug withdrawal” value in the assay with mice [5] is recorded as 3%±2%.

For the compound `C=C1CC[C@@]2(O)[C@H]3Cc4ccc(O)c5c4[C@@]2(CCN3CC2CC2)[C@H]1O5` [nalmefene], the “enhancement of morphine antinociceptive potency compared with naltrexone” value with mice [2] (1 ng/kg nalmefene) is “as effective as 10 ng/kg naltrexone”. Moreover, the “effect on morphine's antinociceptive potency” value with mice [2] (3 mg/kg morphine + 1-100 ng/kg nalmefene i.p., 10 mice) is “enhances morphine's antinociceptive potency”. In addition, the “attenuation of morphine dependence liability compared with naltrexone” value in the assay with mice [3] (1 μg/kg nalmefene, n=10) is given as “may even be more effective than naltrexone”. Also, the “effect on naloxone-precipitated withdrawal jumping” value in the assay on mice [3] is listed as “attenuates naloxone-precipitated withdrawal-jumping”.

As to `O=C1CC[C@@]2(O)[C@H]3Cc4ccc(O)c5c4[C@@]2(CCN3CC2CC2)[C@H]1O5` [naltrexone], in assay [6], the “blockade of excitatory APD prolongation by bimodally-acting opioid agonists” value was “remarkably effective in blocking excitatory APD-prolonging effects”, the “effect on morphine's APD effects” value was “blocks both inhibitory as well as excitatory effects of morphine” and the “selective antagonism of excitatory APD-prolonging effects at excitatory opioid receptors” value is “act selectively as antagonists; also recorded: selectively blocked”. Also, in the assay with DRG neurons, the “excitatory APD prolongation (supersensitivity) after chronic co-treatment” value is “did not evoke the usual excitatory APD prolongation” and the “tolerance to inhibitory effects of opioids after chronic co-treatment” value was “no evidence of tolerance”. Also, the “analgesic effects of antagonist alone” value with mice [2] (10 ng/kg i.p.) is “did not elicit analgesic effects”. In addition, the “analgesic effects of antagonist alone” value in the assay on mice [2] (0.1 μg/kg) was “did not elicit analgesic effects”. Also, the “effect on naloxone-precipitated withdrawal jumping” value with mice [3] is on record as “attenuates naloxone-precipitated withdrawal-jumping”.

`COC(=O)[C@@H]1[C@H]2C[C@H]3c4[nH]c5ccccc5c4CCN3C[C@@H]2CC[C@@H]1O` [yohimbine]: the “reduction of tramadol-induced analgesia” value in the assay with human volunteers is recorded as not below 89%.

Values taken from patent publication US6765010B2, “Compositions and methods for enhancing analgesic potency of tramadol and attenuating its adverse side effects” (Pain Therapeutics, Inc., priority 1999, dated 2004).
